In the assay the target is T1, recombinant human Flag-tagged PARP7 (amino acids 456-657) (Homo sapiens, UniProt Q7Z3E1).
T1 construct: recombinant human Flag-tagged PARP7 (amino acids 456-657)
T1 sequence (Q7Z3E1 456-657): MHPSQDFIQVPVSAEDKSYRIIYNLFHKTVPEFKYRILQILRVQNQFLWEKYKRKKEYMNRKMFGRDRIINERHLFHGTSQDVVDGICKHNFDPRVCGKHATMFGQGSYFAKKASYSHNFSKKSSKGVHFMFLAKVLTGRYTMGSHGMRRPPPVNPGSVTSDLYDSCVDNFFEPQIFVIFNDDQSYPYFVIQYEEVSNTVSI
Briefly: PARP7 biochemical DELFIA assay (auto-MARylation). To be noted: DELFIA readout, IC50 class. The procedure: A suitable assay may be conducted using 10-30 nM PARP7 (amino acids 456-657), 2 μM biotin-NAD assay solution in 20 mM HEPES (pH 7.5), 100 mM NaCl, 2 mM DTT, 0.1% BSA (w/v), 0.02% Tween (v/v) assay buffer. MARylation may take place for 2-3 h at room temperature and may be detected using a dissociation-enhanced lanthanide fluorescence immunoassay (DELFIA) readout. This assay format has been recently utilised for screening for modulators of PARP7 and other MonoPARP enzymes ([…]. et al. Forced Self-Modification Assays as a Strategy to Screen MonoPARP Enzymes. SLAS Discovery. 25; 241-252, (2020)). A particularly suitable assay is described in the Examples below. Optiplate HB 384-well plates were coated with anti-FLAG antibody, supplied as a 4 mg/ml solution, using a Na2CO3/HCO3 coating buffer at pH 9.6, overnight at 4° C., in order to achieve a final immobilisation per well of 0.3 μg. Wells were then washed 3× in coating wash buffer (PBS/0.05% Tween (v/v)), blocked with 2% BSA (w/v) in coating wash buffer and washed 3 further times prior to assay. For the assay 20 μl of 12.5-37.5 nM recombinant human Flag-tagged PARP7 (amino acids 456-657) was added to each well of the 384-well plate for 30 min at room temperature. 50 nl of test compound in DMSO was added using pintool technology and plates were incubated for a further 30 min at room temperature. 5 μl of 15 μM biotin-NAD^+ assay solution in 20 mM HEPES (pH 7.5), 100 mM NaCl, 2 mM DTT, 0.1% BSA (w/v), 0.02% Tween (v/v) assay buffer was then added and MARylation proceeded for 2-3 h at room temperature prior to the addition of 5 μl of 12 mM NAD^+ quenching solution. After 30 min at room temperature, assay solution was removed and following washing 5 times, 100 μl of a 1:1000 dilution of DELFIA Eu-N1 Streptavidin reagent was added. Plates were then incubated for 30 min at room temperature. Reaction mixture was removed and plates washed 5 times prior to the addition of 25 μl DELFIA enhancement solution. Following incubation for 30 min at room temperature, fluorescence was read on either an Envision or Pherastar FS (Ex337 nm, Em620 nm).
As for `O=C(CCOCCn1cc(C(F)F)c2c(=O)[nH]ncc21)N1CCN(c2ncc(C(F)(F)F)cn2)CC1` [Compound 198], the IC50 is ≤ 100 nM.
For `N#Cc1ccc2nc(N3CCN(C(=O)CCOCCc4cccc5c(=O)[nH]ncc45)CC3)oc2c1` [Compound 192] the value was ≤ 100 nM; for `O=C(CCOCCn1cc(C(F)(F)F)c2c(=O)[nH]ncc21)N1CCN(c2ncc(C(F)(F)F)o2)CC1` [Compound 384], ≤ 100 nM.
As to `O=C(CCOCCc1c(F)ccc2c(=O)[nH]ncc12)N1CCN(c2ncc(C(F)(F)F)cn2)CC1` [Compound 229], the IC50 was ≤ 100 nM.
In the case of `CC(COCCC(=O)N1CCN(c2ncc(C(F)(F)F)cn2)CC1)c1cccc2c(=O)[nH]ncc12` (single isomer, unassigned) [Compound 73, 5-(1-(3-oxo-3-(4-(5-(trifluoromethyl)pyrimidin-2-yl)piperazin-1-yl)propoxy)propan-2-yl)phthalazin-1(2H)-one], the IC50 was ≤ 100 nM.
In the case of `CC(COCCC(=O)N1CCN(c2ncc(C#N)cn2)CC1)n1cc(C(F)(F)F)c2c(=O)[nH]ncc21` (stereo not drawn) [Compound 465] it was ≤ 100 nM; in that of `Cc1nc2c(=O)[nH]ncc2n1CCOCCC(=O)N1CCN(c2ncc(C(F)(F)F)cn2)CC1` [Compound 170], 100 to 1000 nM; in that of `CC1Cc2c(cn[nH]c2=O)N(CCOCCC(=O)N2CCN(c3ncc(C(F)(F)F)cn3)CC2)C1` (single isomer, unassigned) [Compound 64, 3-methyl-1-(2-(3-oxo-3-(4-(5-(trifluoromethyl)pyrimidin-2-yl)piperazin-1-yl)propoxy)ethyl)-2,3,4,6-tetrahydropyrido[2,3-d]pyridazin-5(1H)-one], ≤ 100 nM.
In the case of `CC1(C)CN(C(=O)CCOCCn2nc(C(F)(F)F)c3c(=O)[nH]ncc32)CCN1c1ccc(C(F)(F)F)cn1` [Compound 173], the IC50 is ≤ 100 nM.
Consider `O=C(NCCCOc1cccc2c(=O)[nH]ncc12)N1CCN(c2ncc(C(F)(F)F)cn2)CC1` [Compound 36], for which the half-inhibitory concentration (IC50) lay in the range of 1000 to 10000 nM.
As for `CC(COCCn1nc(C(F)(F)F)c2c(=O)[nH]ncc21)C(=O)N1CCN(c2ncc(C(F)(F)F)cn2)CC1` (stereo not drawn) [Compound 202], the IC50 was ≤ 100 nM.
For `O=C(CCOCCc1cccc2c(=O)[nH]ncc12)N1CCN(c2ncc(C(F)F)cn2)CC1` [Compound 101] the value was ≤ 100 nM; for `CC(COCCC(=O)N1CCN(c2ncc(C(F)F)cn2)CC1)n1nc(C(F)(F)F)c2c(=O)[nH]ncc21` (stereo not drawn) [Compound 265], ≤ 100 nM; for `O=C(NCCOCc1cccc2c(=O)[nH]ncc12)C1CCN(c2ncc(C(F)(F)F)cn2)CC1` [Compound 110], 100 to 1000 nM.
For `CC(COCCC(=O)N1CCN(c2ncc(Cl)cn2)CC1)n1cc(C(F)F)c2c(=O)[nH]ncc21` (stereo not drawn) [Compound 450] the value was ≤ 100 nM; for `O=C(CCOCCc1cccc2c(=O)[nH]ncc12)N1CCN(c2nc3ccccc3s2)CC1` [Compound 141], ≤ 100 nM.
Consider `O=C1NCNc2c(CCOCCC(=O)N3CCN(c4ncc(C(F)(F)F)cn4)CC3)cccc21` [Compound 48], for which the 50% inhibitory concentration (IC50) is ≤ 100 nM.
For `CC(COCCC(=O)N1CCN(c2ncc(C(F)(F)F)cn2)CC1)n1ccc2c(=O)[nH]ncc21` (stereo not drawn) [Compound 76], the IC50 fell in the range of 100 to 1000 nM.
For `CC(COCC(=O)N1CCN(c2ncc(C(F)(F)F)cn2)CC1)Oc1cccc2c(=O)[nH]ncc12` (racemic) [Compound 33, 5-((1-(2-oxo-2-(4-(5-(trifluoromethyl)pyrimidin-2-yl)piperazin-1-yl)ethoxy)propan-2-yl)oxy)phthalazin-1(2H)-one], the IC50 was in the range of 100 to 1000 nM.
For the molecule `O=C(CCOCCn1nc(C(F)(F)F)c2c(=O)[nH]ncc21)N1CCN(c2nc3ccccc3[nH]2)CC1` [Compound 257], the 50% inhibitory concentration (IC50) was ≤ 100 nM.
As to `CC1(C)CN(c2ncc(C(F)(F)F)cn2)CCN1C(=O)CCOCCn1nc(C(F)(F)F)c2c(=O)[nH]ncc21` [Compound 193], the IC50 is ≤ 100 nM.
In the case of `CC(CCOCC(=O)N1CCN(c2ncc(C(F)(F)F)cn2)CC1)n1cc(C(F)(F)F)c2c(=O)[nH]ncc21` (single isomer, unassigned) [Compound 455] it was ≤ 100 nM; in that of `N#Cc1ccc(N2CCN(C(=O)c3cccc(CN4CCc5c4cn[nH]c5=O)c3)CC2)nc1` [Compound 5], 1000 to 10000 nM.
For `Cc1ccc(CCOCCC(=O)N2CCN(c3ncc(C(F)(F)F)cn3)CC2)c2cn[nH]c(=O)c12` [Compound 217] the value was ≤ 100 nM.
Regarding `CC(CCOCC(=O)N1CCN(c2ncc(C#N)cn2)CC1)n1nc(C(F)(F)F)c2c(=O)[nH]ncc21` (single isomer, unassigned) [Compound 497], the IC50 was ≤ 100 nM.
In the case of `Cc1nn(CCOCCC(=O)N2CCN(c3ncc(C(F)(F)F)cn3)CC2)c2cn[nH]c(=O)c12` [Compound 127] it was ≤ 100 nM; in that of `CC(COCCC(=O)N1CCN(c2ncc(C(C)(C)C)cn2)CC1)n1nc(C(F)(F)F)c2c(=O)[nH]ncc21` (single isomer, unassigned) [Compound 500], ≤ 100 nM.
With `O=C(CCOCCc1cccc2c(=O)[nH]ncc12)N1CCN(c2ncccn2)CC1` [Compound 104], the IC50 is 100 to 1000 nM.
Turning to `N#Cc1ccc(N2CCN(C(=O)c3cccc(Cn4ncc5c(=O)[nH]ncc54)c3)CC2)nc1` [Compound 24], the IC50 lay within 100 to 1000 nM.
For `O=C(CCOCCc1cccc2c(=O)[nH]ncc12)N1CCC(c2cc(C(F)(F)F)[nH]n2)CC1` [Compound 282], the half-inhibitory concentration (IC50) lay within 1000 to 10000 nM.
As to `N#Cc1ccc2oc(N3CCN(C(=O)CCOCCn4nc(C(F)(F)F)c5c(=O)[nH]ncc54)CC3)nc2c1` [Compound 196], the concentration for half-maximal inhibition (IC50) was ≤ 100 nM.
Take `Cc1c(C(F)(F)F)c2c(=O)[nH]ncc2n1C(C)COCCC(=O)N1CCN(c2ncc(C(F)(F)F)cn2)CC1` (stereo not drawn) [Compound 475]: the IC50 was ≤ 100 nM.
`O=C1CCc2cnc(N3CCN(C(=O)CCOCCc4cccc5c(=O)[nH]ncc45)CC3)nc2N1` [Compound 216]: the IC50 was ≤ 100 nM.
Take `Cc1cc(=O)n(CCOCCC(=O)N2CCN(c3ncc(C(F)(F)F)cn3)CC2)c2cn[nH]c(=O)c12` [Compound 470, 4-methyl-1-(2-(3-oxo-3-(4-(5-(trifluoromethyl)pyrimidin-2-yl)piperazin-1-yl)propoxy)ethyl)pyrido[2,3-d]pyridazine-2,5(1H,6H)-dione]: the IC50 is ≤ 100 nM.
For the molecule `O=C(OCCCCn1nc(C(F)(F)F)c2c(=O)[nH]ncc21)N1CCN(c2ncc(C(F)(F)F)cn2)CC1` [Compound 441], the IC50 is ≤ 100 nM.
Turning to `CC1(C)CN(c2ncc(C(F)(F)F)cn2)CCN1C(=O)CCOCCn1cc(C(F)(F)F)c2c(=O)[nH]ncc21` [Compound 378], the IC50 was ≤ 100 nM.
For `O=C(CCOCCn1nc(C(F)(F)F)c2c(=O)[nH]ncc21)N1CCN(c2cc(C(F)(F)F)on2)CC1` [Compound 364] the value was ≤ 100 nM.
For `[2H]C([2H])(OCCC(=O)N1CCN(c2ncc(C#N)cn2)CC1)C(C)n1nc(C(F)(F)F)c2c(=O)[nH]ncc21` (single isomer, unassigned) [Compound 420, 2-(4-(3-(2-(4-oxo-3-(trifluoromethyl)-4,5-dihydro-1H-pyrazolo[3,4-d]pyridazin-1-yl)propoxy-1,1-d2)propanoyl)piperazin-1-yl)pyrimidine-5-carbonitrile] the value was ≤ 100 nM; for `CNC(=O)c1cnc(N2CCN(C(=O)CCOCC(C)n3nc(C(F)(F)F)c4c(=O)[nH]ncc43)CC2)nc1` (stereo not drawn) [Compound 325], ≤ 100 nM.
For the molecule `Cc1nn(CCOCCC(=O)N2CCN(c3ncc(C(F)(F)F)cn3)C(C)C2)c2cn[nH]c(=O)c12` (stereo not drawn) [Compound 256], the IC50 was ≤ 100 nM.
As for `CC(COCCC(=O)N1CCN(c2ncc(C(F)(F)F)cn2)CC1)c1cc(F)cc2c(=O)[nH]ncc12` (stereo not drawn) [Compound 119], the IC50 is 1000 to 10000 nM.
On to `O=C(CCOCCN1C(=O)CCc2c1cn[nH]c2=O)N1CCN(c2ncc(C(F)(F)F)cn2)CC1` [Compound 157], for which the IC50 is ≤ 100 nM.
Regarding `CC(COCCC(=O)N1CCN(c2ncc(C#N)cn2)CC1)c1ccc(Cl)c2c(=O)[nH]ncc12` (single isomer, unassigned) [Compound 414], the IC50 was in the range of 100 to 1000 nM.
For `O=C(CCOCCc1cccc2c(=O)[nH]ncc12)N1CCN(c2ccc(C(F)F)cn2)CC1` [Compound 97], the IC50 is ≤ 100 nM.
For the molecule `O=C(Cn1nc(C(F)(F)F)c2c(=O)[nH]ncc21)N1CCC(C(=O)N2CCN(c3ncc(C(F)(F)F)cn3)CC2)C1` (stereo not drawn) [Compound 443], the IC50 fell in the range of 1000 to 10000 nM.

Broadly, the IC50 is the concentration at which inhibition is half-maximal.

Values taken from patent US20240217968A1, “PHARMACEUTICAL COMPOUND” (DUKE STREET BIO LIMITED, priority 2021, published 2024).
